Tests used:
humans = conditions: cited from earlier work
male Crl:CD(SD) rats = experiment: Appearance of radiolabeled cholesterol (chylomicrons) in circulation after labeled oral fat challenge with triton block; assay type: in vivo, rat; conditions: vs vehicle; for appearance of 3H cholesterol (CPM) in the serum: 3H cholesterol tracer
Excerpt: A rat model (male Crl:CD(SD) rats) was used for the evaluation of a diverse set of GPR119 agonists. The objective of the studies was to determine if administration of a single dose of an agonist affects the appearance of chylomicrons containing either ^3H- or ^14C-cholesterol in circulation of fasted Crl:CD(SD) rats.
In order to track chylomicron appearance in circulation, radiolabeled cholesterol (with or without radiolabeled retinol) was co-administered with olive oil by oral gavage. Both tracers label the chylomicron core as the cholesterol administered is esterified in the enterocyte, packaged into the chylomicron, and released into the lymphatic system for transport to the systemic circulation. In order to assess appearance and accumulation of the newly formed chylomicrons in circulation, triton was administered by intravenous injection to block the clearance of these particles from circulation.
The rats had been previously instrumented with an implanted jugular catheter to facilitate obtaining multiple blood samples without stress to the animal. Rats were fasted overnight prior to labeled oral fat challenge. All compounds were dosed one hour prior to the challenge test. Treatment groups were randomized by body weight.
All compounds were administered at 5 mL/kg by the oral route as suspensions in hydroxypropylmethylcellulose (0.5%) which contained 0.1% Tween 80. Triton (250 mg/kg) was administered by intravenous injection immediately prior to an oral gavage of the tracer mixed with olive oil. Total volume of olive oil administered per rat was 2 mL, which contained (per 2 mL olive oil) either:
5-10 uCi ^14C-cholesterol (alone or in combination with 80 uCi ^3H-retinol)
5-20 uCi ^3H-cholesterol.
Blood samples were taken at the following time points: 0.25, 0.5, 0.75, 1, 2, 3, 4, 5 and 6 hours post olive oil gavage. Samples were spun at 8,000×g for 8 minutes at room temperature and 100 uL aliquots of serum counted for ^3H or ^14C.

[1] = previously discovered, patients
[2] = single oral dose 30 mg/kg one hour before olive oil containing 14C cholesterol

Compound: CC(C)c1noc(N2CCC(COc3ccc(-c4ccc(S(C)(=O)=O)cc4)nc3)CC2)n1 [Compound A, 5-[({1-[3-(1-methylethyl)-1,2,4-oxadiazol-5-yl]-4-piperidinyl}methyl)oxy]-2-[4-(methylsulfonyl)phenyl]pyridine]
- fasting ApoB/B100 (humans; humans): reducing
- fasting ApoB/B100:ApoA1 ratio (humans; humans): reducing
- fasting ApoE (humans; humans): reducing
- fasting HDL cholesterol (humans; humans): increasing
- fasting LDL cholesterol (humans; humans): reduced
- fasting LDL cholesterol:HDL cholesterol ratio (humans; humans): reducing
- fasting non-HDL cholesterol (humans; humans): reducing
- fasting plasma alanine aminotransferase (humans; humans): reducing
- fasting plasma uric acid (humans; humans): reducing
- fasting total cholesterol (humans; humans): reducing
- fasting total cholesterol:HDL cholesterol ratio (humans; humans): reducing
- fasting triglycerides (humans; humans): reducing
- prandial triglycerides (humans; humans): reducing
- rise in serum triglycerides that occurs following meals (humans; patients treated with Compound A): significantly blunted
- HDL cholesterol (humans; [1]): raises
- LDL cholesterol (humans; [1]): lowers
- total cholesterol (humans; [1]): lowers
- appearance of 3H cholesterol (CPM) in the serum (male Crl:CD(SD) rats; single oral dose 3 mg/kg): decreased
- appearance of 14C labeled chylomicrons in circulation (male Crl:CD(SD) rats; single oral dose 3 mg/kg, olive oil containing 14C cholesterol): significantly reduced
- appearance of 3H cholesterol (CPM) in the serum (male Crl:CD(SD) rats; single oral dose 10 mg/kg): decreased
- appearance of 14C labeled chylomicrons in circulation (male Crl:CD(SD) rats; single oral dose 10 mg/kg, olive oil containing 14C cholesterol): significantly reduced
- appearance of 14C labeled chylomicrons in circulation (male Crl:CD(SD) rats; [2]): significantly reduced

Compound: CC(C)c1noc(N2CCC([C@H](C)Oc3cnc(-c4ccc(S(C)(=O)=O)cc4)cn3)CC2)n1 [Compound B, 2-[((1S)-1-{1-[3-(1-methylethyl)-1,2,4-oxadiazol-5-yl]-4-piperidinyl}ethyl)oxy]-5-[4-(methylsulfonyl)phenyl]pyrazine]
- appearance of 14C labeled chylomicrons in circulation (male Crl:CD(SD) rats; [2]): significantly reduced
- appearance of 3H cholesterol (CPM) in the serum (male Crl:CD(SD) rats; single oral dose 30 mg/kg): decreased

Compound: Cc1ncccc1Oc1ncnc(OC2CCN(C(=O)OC(C)C)CC2)c1C.Cl [Compound G, 1-methylethyl 4-({5-methyl-6-[(2-methyl-3-pyridinyl)oxy]-4-pyrimidinyl}oxy)-1-piperidinecarboxylate hydrochloride]
- appearance of 3H cholesterol (CPM) in the serum (male Crl:CD(SD) rats; single oral dose 30 mg/kg): significant reduced

Compound: Cc1cc(S(C)(=O)=O)ccc1N1CCc2c(OC3CCN(C(=O)OC(C)C)CC3)ncnc21 [Compound H, 1-methylethyl 4-({7-[2-methyl-4-(methylsulfonyl)phenyl]-6,7-dihydro-5H-pyrrolo[2,3-d]pyrimidin-4-yl}oxy)-1-piperidinecarboxylate]
- appearance of 3H cholesterol (CPM) in the serum (male Crl:CD(SD) rats; single oral dose 30 mg/kg): significant reduced

Compound: CC(C)n1nnc(N2CCC([C@H](C)Oc3cnc(-c4ccc(S(C)(=O)=O)cc4)cn3)CC2)n1 [Compound I, 2-[((1S)-1-{1-[2-(1-methylethyl)-2H-tetrazol-5-yl]-4-piperidinyl}ethyl)oxy]-5-[4-(methylsulfonyl)phenyl]pyrazine]
- appearance of 3H cholesterol (CPM) in the serum (male Crl:CD(SD) rats; single oral dose 30 mg/kg): significant reduced

Compound: C[C@@H](OC1CCN(C(=O)OC(C)(C)C)CC1)c1nc(-c2ccc(S(C)(=O)=O)c(F)c2)no1 [Compound J, 1,1-dimethylethyl 4-[((1R)-1-{3-[3-fluoro-4-(methylsulfonyl)phenyl]-1,2,4-oxadiazol-5-yl}ethyl)oxy]-1-piperidinecarboxylate]
- appearance of 3H cholesterol (CPM) in the serum (male Crl:CD(SD) rats; single oral dose 30 mg/kg): significant reduced

Source: US20140249156A1, “Treatment Of Blood Lipid Abnormalities And Other Conditions” (GlaxoSmithKline LLC, priority 2011, published 2014)
